Test results: patent publication US4599325A, “Substituted tyrosyl alanine dipeptide amides” (G. D. Searle & Co., priority 1985, dated 1986)
Where a name gives a salt, the structure may show the parent alone. Read-outs that look alike come from different tables or passages of the source.

Experiments:
[1] = test system: mice; assay: Combined tail flick and hot plate tests: hot plate; type: in vivo, mouse; settings: for ED50: Mus musculus, combined tail flick/hot plate; for activity in hot plate test of combined tests: oral and subcutaneous, prior art at doses as great as 100 mg/kg p.o. and 50 mg/kg s.c.
Description: Male albino inbred mice supplied by Charles River (CD-1/HAM/1LR) weighing between 20 and 30 grams were used. Analgesia was first measured using the tail flick test in which a high intensity beam of light was focused on the blackened tail. The interval of time between onset of the light and reflex removal of the tail was defined as the tail flick latency. The average of two successive determinations was recorded. Following tail flick determination, the animals were immediately placed on a 55° C. copper hot plate to which they were restricted by an inverted 600 ml glass beaker. Hot plate latency was defined as the interval between placement on the hot plate and a behavioral response of either a jump or a hindpaw lick. One determination was recorded. Mice not responding within 4.0 seconds on the tail flick and 20.0 seconds on the hot plate were discarded from the study. The tail flick test and the hot plate test were stopped after 12.0 and 40 seconds, respectively, had elapsed to prevent tissue damage. After determination of pre-injection baseline latencies, the test compound was dissolved in distilled water and administered either orally or subcutaneously (0.1 ml/10 gram body weight). Tail flick and hot plate latencies were measured 10, 30, 60 and 90 minutes after injection. One-way analyses of variance were used to detect any significant increase in tail flick and hot plate latencies (indicative of analgesia) as compared to latencies prior to drug adminstration, as well as to establish the dose-dependence of any effect. A linear regression method (least squares) was used to determine the line of best fit. The ED50 dose was determined to be that dose of test compound that produced one-half the maximum measurable increase in latency. This corresponded to a post-drug tail flick latency of 7.5 seconds and hot plate latency of 25 seconds. G. Keppel: Design and analysis: a researcher's handbook, New Jersey, Prentice-Hall, 1973.

[2] = test system: mice; assay: Hot plate test (intravenous administration); type: in vivo, mouse; settings: 10 mg/kg i.v.
Description: Male albino inbred mice supplied by Charles River [CD-1 (ICR)BR] weighing between 20 and 30 grams were used. The mice were placed on a 55° C. hot plate 60, 40, and 20 minutes prior to drug administration and the latencies to the lick of a paw or to a jump were recorded. Mice not responding within 15 seconds were discarded from the study. The test compound or vehicle was then administered intravenously and the animals' response latencies on the hot plate were recorded again 10, 30 and 60 minutes later. The initial test dose was 10 mg/kg. Mice not responding within 30 seconds were removed from the hot plate to prevent tissue damage and assigned the cut-off value of 30 seconds. Elevation of the response latencies to greater than twice the median of the three pre-drug latency measurements was indicative of analgesia. For each time point, the data were expressed as the number of animals having analgesic response latencies out of the total number tested. The number of analgesic animals in the test compound-treated group was then compared with the number of analgesic animals in the vehicle-treated group at each time point using Fisher's Exact Probability Test. S. Siegel, Nonparametric Statistics for the Behavioral Sciences. McGraw-Hill, New York, pp. 96-104 (1956 ). […]

[3] = test system: rat cholera model; assay: Cholera-induced intestinal fluid secretion (rat cholera model); type: in vivo
Description: The rat cholera model was used to determine the effect of the test compounds on intestinal fluid movements. (H. I. Jacoby and C. H. Marshall, Antagonism of Cholera Enterotoxin by Anti-inflammatory Agents in the Rat. Nature, 235, 163-165, 1972). Female Charles River rats weighing 85-100 grams and having free access to water were fasted for 24 hours prior to each experiment. After a midline incision was made under ether anesthesia, a 20-cm ligated small intestinal segment was constructed starting 3 cm distal to the ligament of Treitz. Each segment was injected, using a 27 gauge 1/2-inch needle, with crude cholera toxin in a 0.9% saline solution. Thirty minutes before cholera toxin was injected, test compounds were administered subcutaneously to groups of four rats at doses of 10 and 20 mg/kg. Four hours after injection of toxin, the animals were sacrificed and the fluid content and exact length of the intestinal segments were measured. Fluid secretion was expressed in ml/cm of intestine.
The ID50 's of these compounds were estimated using data obtained from at least two doses and at least two experiments by the method of maximum likelihood. R. A. Fischer. "Principles of Statistical Estimation." in Statistical Methods for Research Workers, 14th ed. Hafner: New York; pp. 301-339. […]

Row | Compound | ED50 ([1]; po, p.o., read-out: Hot Plate (ED50) p.o.) | ED50 ([1]; sc, s.c., read-out: Hot Plate (ED50) s.c.) | activity in hot plate test of combined tests [1] | Hot Plate (I.V.) 10 mg/kg: rating and animals with analgesic latencies / tested [2] | ED50 ([3]; Rattus norvegicus, sc, read-out: Rat Cholera Test (ED50)) | Hot Plate, activity at stated dose s.c. ([1]; 50 mg/kg s.c.) | Hot Plate, activity at stated dose p.o. ([1]; 100 mg/kg p.o.) | Rat Cholera Test, activity at stated dose ([3]; 20 mg/kg s.c.)
1 | Cc1cc(O)cc(C)c1C[C@H](N)C(=O)N[C@H](C)C(=O)NCCCc1ccccc1 [Example 5, 2,6-dimethyltyrosyl-N-(3-phenylpropyl)-D-alaninamide, hydrochloride] | 52 mg/kg | 9 mg/kg | active | Active 6/7 | 6.1 mg/kg | – | – | –
2 | tyrosine-D-alanine-phenylpropylamide [Prior Art, reference compound] | – | – | not active | Inactive 0/10 | – | Inactive | Inactive | Inactive
